{"source": "patent US6713628B2", "about": "“Process for preparing pharmacologically acceptable salt of N-(1(S)-ethoxycarbonyl-3-phenylpropyl)-L-alanyl-amino acid” (Kaneka Corporation, priority 1997, dated 2004)", "type_in_all_cases": "physicochemical", "key": {"[1]": {"experiment": "Formation of diketopiperazine derivative (3) from enalapril maleate in ethyl acetate containing 0.1% water or in H2O, 60° C., 6 hours, HPLC (Example 9)", "conditions": "16% by weight", "procedure": "(§1) The HPLC analysis was carried out under the following conditions:\nAccording to Example 1, N-(1(S)-ethoxycarbonyl-3-phenylpropyl)-L-alanyl-L-proline maleate was prepared. Thereto was added ethyl acetate containing 0.1% water or H2O to prepare a solution having a concentration of 16% by weight, and the solution was warmed to 60° C. and stirred for 6 hours. The amount produced of the diketopiperazine derivative (3) was analyzed with HPLC, and the relation between water content and the average increase in the diketopiperazine derivative (3) per hour was investigated."}, "[2]": {"experiment": "Formation of diketopiperazine derivative (3) from the Example 10 oil in ethyl acetate of given water content, 10° C., 6 hours, HPLC (Example 10)", "conditions": "about 12% by weight solution", "procedure": "as §1\nTo 5.00 g (28.2 mmol) of 1,2,3,4-tetrahydroisoquinoline-3-carboxylic acid were added 20 ml of ethyl acetate and 10 ml of H2O and, then, the pH was adjusted to 10.5 with 30% by weight NaOH aqueous solution. The inner temperature was regulated to 20° C. and, then, 4.31 g (14.1 mmol) of a crystal of N-(1(S)-ethoxycarbonyl-3-phenylpropyl)-L-alanine.N-carboxyanhydride was slowly added over 5 hours with stirring. During the addition, the reaction mixture was maintained at a pH of 10.5±1.0 with adding dropwise 30% by weight NaOH aqueous solution, and simultaneously, the inner temperature was maintained at 20° C. and the agitating power was maintained at 1.3 kW/m^3. After completion of the addition, the stirring was continued for 2 hour under the same conditions. The mixture was cooled to 5° C., and the pH thereof was adjusted to 4.5±0.2 with 35% by weight HCl. Then, under the same conditions, the stirring was continued for 10 minutes to complete the decarboxylation. The deposited material was removed by filtration under reduced pressure, and the organic phase was separated at 5° C. and the water phase was further extracted once with 20 ml of ethyl acetate at 10° C. The resulting organic phases were mixed and then washed three times with H2O in an amount of 5% by volume of the organic phase at 5° C. The organic phase was concentrated under reduced pressure to obtain 6.43 g of an oil. The oil was dissolved in ethyl acetate having a water content shown in Table 5 to prepare a solution having a concentration of about 12% by weight, and the resulting solution was stirred for 6 hours at 10° C. The amount produced of the diketopiperazine derivative (3) was analyzed with HPLC, and the relation between water content and the average increase in the diketopiperazine derivative (3) per hour was investigated."}, "[3]": {"experiment": "Formation of diketopiperazine derivative (3) from enalapril in ethyl acetate of given water content or in water, 30° C., 6 hours, HPLC (Example 8)", "conditions": "about 13% by weight solution", "procedure": "as §1\nAccording to Example 1, an ethyl acetate solution of N-(1(S)-ethoxycarbonyl-3-phenylpropyl)-L-alanyl-L-proline was prepared. 129.40 Grams of this organic phase was washed twice with 30 ml of saturated brine, and dehydrated with magnesium sulfate. The solvent was concentrated and, then, the concentrated liquid was dried under reduced pressure to obtain an oily reaction product. This product was dissolved in ethyl acetate having a water content shown in Table 3 or water to prepare a solution having a concentration of about 13% by weight, and the solution was warmed to 30° C. and stirred for 6 hours. The amount produced of the diketopiperazine derivative (3) was analyzed with HPLC, and the relation between water content and the average increase in the diketopiperazine derivative (3) per hour was investigated. The molar ratio in Table 3 means mol number of water per 1 mol of N-(1(S)-ethoxycarbonyl-3-phenylpropyl)-L-alanyl-L-proline."}, "[4]": {"experiment": "Partition of enalapril between ethyl acetate and water against temperature, HPLC (Example 11)", "conditions": "ethyl acetate solution + H2O 10% by volume", "procedure": "as §1\nAccording to Example 1, an ethyl acetate solution of N-(1(S)-ethoxycarbonyl-3-phenylpropyl)-L-alanyl-L-proline was prepared. To 50 ml of the ethyl acetate solution was added H2O in an amount of 10% by volume (based on ethyl acetate). The mixture was stirred for 10 minutes at each temperature shown in Table 6, and allowed to stand still for 10 minutes and, then, separated. The amount of N-(1(S)-ethoxycarbonyl-3-phenylpropyl)-L-alanyl-L-proline in the water-saturated organic phase was analyzed with HPLC, and the relation between the temperature and the partition ratio to the organic phase was investigated."}}, "data": [{"compound": "CCOC(=O)[C@H](CCc1ccccc1)N[C@@H](C)C(=O)N1CCC[C@H]1C(=O)O.O=C(O)/C=C\\C(=O)O", "note": "[N-(1(S)-ethoxycarbonyl-3-phenylpropyl)-L-alanyl-L-proline maleate]", "values": [{"measurement": "Average increase per hour of diketopiperazine derivative (3)", "setting": "[1]; H2O", "result": 0.06, "unit": "% by weight/hr"}, {"measurement": "Average increase per hour of diketopiperazine derivative (3)", "setting": "[1]; ethyl acetate containing 0.1% water", "result": 0.55, "unit": "% by weight/hr"}]}, {"compound": "CCOC(=O)[C@H](CCc1ccccc1)N[C@@H](C)C(=O)N1Cc2ccccc2C[C@H]1C(=O)O", "note": "[Example 10]", "values": [{"measurement": "Average increase per hour of diketopiperazine derivative (3)", "setting": "[2]; water content 0.1% by weight", "result": 5.3, "unit": "% by weight/hr"}, {"measurement": "Average increase per hour of diketopiperazine derivative (3)", "setting": "[2]; water content 1.0% by weight", "result": 2.2, "unit": "% by weight/hr"}, {"measurement": "Average increase per hour of diketopiperazine derivative (3)", "setting": "[2]; water content 2.1% by weight", "result": 1.7, "unit": "% by weight/hr"}, {"measurement": "Average increase per hour of diketopiperazine derivative (3)", "setting": "[2]; water content 3.8% by weight", "result": 1.3, "unit": "% by weight/hr"}]}, {"compound": "CCOC(=O)[C@H](CCc1ccccc1)N[C@@H](C)C(=O)N1CCC[C@H]1C(=O)O", "note": "[N-(1(S)-ethoxycarbonyl-3-phenylpropyl)-L-alanyl-L-proline]", "values": [{"measurement": "Average increase per hour of diketopiperazine derivative (3)", "setting": "[3]; ethyl acetate, water content 0.1% by weight (molar ratio 0.1)", "result": 2.85, "unit": "% by weight/hr"}, {"measurement": "Average increase per hour of diketopiperazine derivative (3)", "setting": "[3]; ethyl acetate, water content 0.4% by weight (molar ratio 0.6)", "result": 2.06, "unit": "% by weight/hr"}, {"measurement": "Average increase per hour of diketopiperazine derivative (3)", "setting": "[3]; ethyl acetate, water content 1.1% by weight (molar ratio 1.6)", "result": 1.32, "unit": "% by weight/hr"}, {"measurement": "Average increase per hour of diketopiperazine derivative (3)", "setting": "[3]; ethyl acetate, water content 2.1% by weight (molar ratio 3.1)", "result": 0.99, "unit": "% by weight/hr"}, {"measurement": "Average increase per hour of diketopiperazine derivative (3)", "setting": "[3]; ethyl acetate, water content 3.8% by weight (molar ratio 6.1)", "result": 0.48, "unit": "% by weight/hr"}, {"measurement": "Average increase per hour of diketopiperazine derivative (3)", "setting": "[3]; ethyl acetate, water content 5.1% by weight (molar ratio 8.2)", "result": 0.39, "unit": "% by weight/hr"}, {"measurement": "Average increase per hour of diketopiperazine derivative (3)", "setting": "[3]; water, water content 100% by weight (molar ratio 160)", "result": 0.02, "unit": "% by weight/hr"}, {"measurement": "Partition ratio to organic phase", "setting": "[4]; 5° C.", "result": 26, "unit": "%"}, {"measurement": "Partition ratio to organic phase", "setting": "[4]; 10° C.", "result": 35, "unit": "%"}, {"measurement": "Partition ratio to organic phase", "setting": "[4]; 20° C.", "result": 57, "unit": "%"}, {"measurement": "Partition ratio to organic phase", "setting": "[4]; 25° C.", "result": 72, "unit": "%"}, {"measurement": "Partition ratio to organic phase", "setting": "[4]; 30° C.", "result": 88, "unit": "%"}, {"measurement": "Partition ratio to organic phase", "setting": "[4]; 40° C.", "result": 94, "unit": "%"}]}]}
